Data taken from article PMC5325082 (Molecular Pharmacology, 2017).

Legend:
[1] = target: T1, α9χα10χ (α9 and α10 extracellular domains fused to 5-HT3A) (UniProt P23979+P43144+Q9JLB5, L231I/L232I); experiment: [3H]-α-BTX radioligand binding, membranes of transfected tsA201 cells; parameters: species or system rat; settings: ACh 1 mM alone vs standard mixture of nonradioactive ligands
T1 construct: the extracellular N-terminal domain of the α9 or α10 subunit; expressed in transfected cells; host or cells: tsA201 cells (HEK293-derived), membrane preparation
Method: (§1) Chimeric subunit cDNAs containing the extracellular N-terminal domain of the α9 or α10 subunit fused to the transmembrane and intracellular domain of the mouse 5-HT3A subunit have been described previously ([Baker et al., 2004]). The mammalian cell line tsA201 (derived from the human embryonic kidney 293 cell line) was obtained from Dr. William Green (University of Chicago, Chicago). Cells were cultured in Dulbecco’s modified Eagle’s medium (Invitrogen, Paisley, United Kingdom) containing 2 mM L-GlutaMAX (Invitrogen) plus 10% heat-inactivated fetal calf serum (Sigma, Poole, United Kingdom) with penicillin (100 U/ml) and streptomycin (100 µg/ml) and were maintained in a humidified incubator containing 5% CO2 at 37°C. Cells were transiently transfected using Effectene transfection reagent (QIAGEN, Crawley, United Kingdom) according to the manufacturer’s instructions. In all cases, cells were transfected overnight and assayed for expression approximately 40–48 hours after transfection. To ensure that the levels of radioligand binding were not influenced by differences in the amount of subunit cDNA expressed, the amount of each subunit plasmid DNA and also the total amount of plasmid DNA were kept constant when subunits were expressed singly and in combination. This was achieved by the inclusion of empty plasmid expression vector when single subunits were transfected.
(§2) Binding studies with [^3H]-α-bungarotoxin (α-BTX) in cell membrane preparations were performed essentially as described previously ([Lansdell and Millar, 2000]; [Harkness and Millar, 2002]). Membranes (typically, 10–100 µg of protein) were incubated with radioligand (final concentration 20 nM) for 150 minutes at 4°C in a total volume of 300 µl in the presence of protease inhibitors leupeptin (2 µg/ml) and pepstatin (1 µg/ml). Our standard protocol for determining nonspecific binding was the addition of 1 mM carbachol, 1 mM nicotine, and 10 µM methyllycaconitine to triplicate samples. […] In all cases the levels of specific binding were determined by subtracting the level of nonspecific binding from the total binding (both of which were determined in triplicate). The data were determined as means of three independent experiments, each performed in triplicate. Radioligand binding was assayed by filtration onto 0.5% polyethylenimine-presoaked Whatman GF/B filters (Sigma-Aldrich, Dorset, England) followed by rapid washing (typically, five washes, each of 4 ml) with ice-cold 10 mM phosphate buffer using a Brandel cell harvester, and radioactivity was determined by scintillation counting. […] Protein concentrations were determined using bovine serum albumin standards (Bio-Rad, Hercules, CA).

α9χα10χW55T = target: T2, α9χα10χW55T (UniProt P23979+P43144+Q9JLB5, L231I/L232I/W81T); experiment: as above; parameters: species or system rat; settings: ACh 1 mM alone vs standard mixture of nonradioactive ligands
T2 construct: containing the extracellular N-terminal domain of the α9 or α10 subunit fused to the transmembrane and intracellular domain of the mouse 5-HT3A subunit; mouse 5-HT3A subunit transmembrane and intracellular domain (fusion partner); expressed in transfected cells; host or cells: tsA201 (derived from human embryonic kidney 293), transient transfection; membrane preparations
Method: as §1, §2

[2] = target: chicken α9α10 nAChR (wild type) (Gallus gallus, UniProt Q9I8C7+Q9PTS8); experiment: ACh-evoked currents, two-electrode voltage clamp in Xenopus laevis oocytes, wild-type receptor; assay type: cell-based
Source text: cDNAs encoding Gallus gallus (chick) or Rattus norvegicus (rat) α9 and α10 nAChR subunits were subcloned into a modified pGEMHE vector for expression studies in Xenopus laevis oocytes. Capped cRNAs were in vitro transcribed from linearized plasmid DNA templates using RiboMAX Large Scale RNA Production System (Promega, Madison, WI). Mutant subunits were produced using Quick Change XL II kit (Stratagene, La Jolla, CA). Amino acid sequences of rat and chicken α9, α10, and Torpedo α1 subunits were aligned using ClustalW (EMBL-EBI, Wellcome Genome Campus, Hinxton, Cambridgeshire). Residues were numbered according to the corresponding Torpedo α1 subunit mature protein ([Karlin, 2002]).
The maintenance of Xenopus laevis and the preparation and cRNA injection of stage V and VI oocytes have been described in detail elsewhere ([Verbitsky et al., 2000]). Typically, oocytes were injected with 50 nl of RNase-free water containing 0.01–1.0 ng of cRNA (at a 1:1 molar ratio when pairwise combined) and maintained in Barth’s solution at 18°C. […] Data were analyzed using Clampfit from the pClamp 6.1 software (Molecular Devices, Sunnyvale, CA). […]
Concentration-response curves were normalized to the maximal agonist response in each oocyte. […] Data were analyzed using Clampfit from the pClamp 6.1 software.

chicken α9α10 nAChR (wild type), sequence (Q9I8C7 27-452): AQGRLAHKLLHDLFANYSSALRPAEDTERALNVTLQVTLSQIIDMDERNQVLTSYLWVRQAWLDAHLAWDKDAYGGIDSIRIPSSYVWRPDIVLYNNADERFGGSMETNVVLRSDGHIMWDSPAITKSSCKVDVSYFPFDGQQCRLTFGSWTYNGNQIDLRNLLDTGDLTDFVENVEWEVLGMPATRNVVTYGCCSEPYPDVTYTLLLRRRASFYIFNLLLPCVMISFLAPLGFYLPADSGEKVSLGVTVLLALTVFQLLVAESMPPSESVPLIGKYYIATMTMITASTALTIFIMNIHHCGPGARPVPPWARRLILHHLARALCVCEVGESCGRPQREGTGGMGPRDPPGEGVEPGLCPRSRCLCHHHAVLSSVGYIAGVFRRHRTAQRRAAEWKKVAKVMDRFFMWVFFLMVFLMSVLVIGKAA
chicken α9α10 nAChR (wild type), sequence (Q9PTS8 28-484): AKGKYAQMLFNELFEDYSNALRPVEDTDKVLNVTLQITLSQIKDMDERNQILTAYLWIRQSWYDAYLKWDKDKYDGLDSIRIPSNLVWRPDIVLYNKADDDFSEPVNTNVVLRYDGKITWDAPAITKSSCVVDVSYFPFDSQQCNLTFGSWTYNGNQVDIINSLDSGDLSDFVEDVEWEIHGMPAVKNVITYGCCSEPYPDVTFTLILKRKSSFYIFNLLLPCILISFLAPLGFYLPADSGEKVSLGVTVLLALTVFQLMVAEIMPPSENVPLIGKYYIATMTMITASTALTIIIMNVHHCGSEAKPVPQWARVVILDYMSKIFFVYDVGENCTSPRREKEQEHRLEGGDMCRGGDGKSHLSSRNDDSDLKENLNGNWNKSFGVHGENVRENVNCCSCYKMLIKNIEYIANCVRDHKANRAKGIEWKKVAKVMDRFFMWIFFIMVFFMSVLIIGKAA
T2 sequence (P23979 whole entry, looked up, stated change not applied, the tested form may be a part): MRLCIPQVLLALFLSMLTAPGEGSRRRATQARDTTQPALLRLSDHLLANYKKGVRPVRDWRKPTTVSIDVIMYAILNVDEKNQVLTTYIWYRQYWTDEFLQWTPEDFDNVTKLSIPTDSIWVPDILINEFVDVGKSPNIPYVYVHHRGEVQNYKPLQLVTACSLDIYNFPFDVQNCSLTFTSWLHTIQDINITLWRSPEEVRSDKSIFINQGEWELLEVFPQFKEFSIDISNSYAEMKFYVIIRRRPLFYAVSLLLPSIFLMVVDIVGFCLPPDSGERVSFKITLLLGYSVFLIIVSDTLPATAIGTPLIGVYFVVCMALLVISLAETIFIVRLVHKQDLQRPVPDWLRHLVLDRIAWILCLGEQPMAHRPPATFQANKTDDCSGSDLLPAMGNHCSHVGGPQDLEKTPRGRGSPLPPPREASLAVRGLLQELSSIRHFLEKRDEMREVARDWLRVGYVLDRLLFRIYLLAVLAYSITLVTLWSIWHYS
T2 sequence (P43144 whole entry, looked up, stated change not applied, the tested form may be a part): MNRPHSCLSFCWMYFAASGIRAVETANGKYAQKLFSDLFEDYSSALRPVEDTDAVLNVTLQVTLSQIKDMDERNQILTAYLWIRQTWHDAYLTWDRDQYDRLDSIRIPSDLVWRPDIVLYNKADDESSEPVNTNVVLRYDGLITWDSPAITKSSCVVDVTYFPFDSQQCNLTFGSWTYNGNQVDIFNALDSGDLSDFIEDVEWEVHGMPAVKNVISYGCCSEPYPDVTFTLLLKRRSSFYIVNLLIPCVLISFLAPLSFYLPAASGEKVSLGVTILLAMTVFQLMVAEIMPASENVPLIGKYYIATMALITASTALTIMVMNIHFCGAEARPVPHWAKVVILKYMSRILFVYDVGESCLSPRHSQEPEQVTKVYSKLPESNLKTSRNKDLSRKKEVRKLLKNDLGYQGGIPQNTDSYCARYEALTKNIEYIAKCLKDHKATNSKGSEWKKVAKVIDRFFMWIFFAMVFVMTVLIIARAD
T2 sequence (Q9JLB5 whole entry, looked up, stated change not applied, the tested form may be a part): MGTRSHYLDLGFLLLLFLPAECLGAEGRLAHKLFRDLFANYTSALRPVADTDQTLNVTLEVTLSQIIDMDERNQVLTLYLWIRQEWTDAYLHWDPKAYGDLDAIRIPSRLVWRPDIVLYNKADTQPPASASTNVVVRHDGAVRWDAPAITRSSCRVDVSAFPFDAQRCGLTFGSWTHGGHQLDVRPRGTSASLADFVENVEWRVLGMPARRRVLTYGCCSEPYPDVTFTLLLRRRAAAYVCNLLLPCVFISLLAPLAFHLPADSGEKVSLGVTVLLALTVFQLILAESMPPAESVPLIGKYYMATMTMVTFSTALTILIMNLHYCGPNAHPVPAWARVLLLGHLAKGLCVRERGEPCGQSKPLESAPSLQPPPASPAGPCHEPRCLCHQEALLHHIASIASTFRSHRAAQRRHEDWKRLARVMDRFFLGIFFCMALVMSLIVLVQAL
T1 sequence (P23979 whole entry, looked up, the tested form may be a part): as the sequence (P23979 whole entry, looked up, stated change not applied, the tested form may be a part) above
T1 sequence (P43144 whole entry, looked up, stated change not applied, the tested form may be a part): as the sequence (P43144 whole entry, looked up, stated change not applied, the tested form may be a part) above
T1 sequence (Q9JLB5 whole entry, looked up, stated change not applied, the tested form may be a part): as the sequence (Q9JLB5 whole entry, looked up, stated change not applied, the tested form may be a part) above

CC(=O)OCC[N+](C)(C)C [ACh, acetylcholine]
Displacement of bound [3H]-α-BTX by ACh [1]: displaced as efficiently with ACh alone as with our standard mixture of nonradioactive competing ligands | Displacement of bound [3H]-α-BTX by ACh (α9χα10χW55T): displaced as efficiently with ACh alone as with our standard mixture of nonradioactive competing ligands | EC50 [2]: 16 ± 2 µM | Imax (maximal evoked current) [2]: 100 ± 12 nA
